Data: PubChem BioAssay (NCI)
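Dose response: 5 concentrations. Exposure: 48 h. Format: 96-well plates. Endpoint: linear interpolation; highest concentration if not reached. TGI denotes the concentration required for complete inhibition of growth.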

What was measured:
Experiment in all cases: growth of human tumour cells (NCI), 48 h
[1] = tested on: U251 CNS
[2] = tested on: CAKI-1 renal
[3] = tested on: SK-MEL-28 melanoma
[4] = tested on: SN12C renal
[5] = tested on: IGROV1 ovarian
[6] = tested on: NCI-H460 lung
[7] = tested on: COLO 205 colon
[8] = tested on: MOLT-4 leukemia
[9] = tested on: MDA-MB-435
[10] = tested on: NCI-H226 lung
[11] = tested on: UACC-62 melanoma
[12] = tested on: SNB-75 CNS
[13] = tested on: M14 melanoma
[14] = tested on: ACHN renal
[15] = tested on: K-562 leukemia
[16] = tested on: SNB-19 CNS
[17] = tested on: MALME-3M melanoma
[18] = tested on: BT-549 breast
[19] = tested on: RPMI-8226 leukemia
[20] = tested on: OVCAR-5 ovarian

Row | SMILES | TGI [1] | TGI [2] | TGI [3] | TGI [4] | TGI [5] | TGI [6] | TGI [7] | TGI [8] | TGI [9] | TGI [10] | TGI [11] | TGI [12] | TGI [13] | TGI [14] | TGI [15] | TGI [16] | TGI [17] | TGI [18] | TGI [19] | TGI [20]
1 | C/C(=N/NC(=S)N1CCCCCC1)c1ccccc1O | > 100 µM | > 96.2 µM | > 100 µM | 40.9 µM | > 39.7 µM | 25.2 µM | > 49.3 µM | 24.4 µM | > 100 µM | > 59.5 µM | 17.7 µM | 69.1 µM | 11 µM | 39 µM | > 100 µM | > 100 µM | > 49.8 µM | > 100 µM | 40.4 µM | > 100 µM
2 | COc1ccc(Cc2cc(OC)c(OC)c(OC)c2)cc1O | > 22.7 µM | > 100 µM | > 100 µM | > 100 µM | > 100 µM | > 100 µM | > 57.1 µM | > 100 µM | > 100 µM | 99.4 µM | > 73.2 µM | > 100 µM | > 100 µM | > 100 µM | > 100 µM | > 100 µM | > 100 µM | > 100 µM | > 100 µM | > 100 µM
3 | CC(=O)OCC1OC(O[C@@H]2C[C@H]3C(C)(C)[C@H](OC(C)=O)CC[C@]3(C)[C@H]3CC[C@@]45C[C@H](O)C[C@H](C)[C@@H]4CC=C5[C@@]32C)C(O)C(O)C1O (stereo partly drawn) | 10.3 µM | 24.6 µM | 19.4 µM | 15.5 µM | 9.33 µM | 12.5 µM | 3.28 µM | 6.33 µM | 11.2 µM | 16.1 µM | 16.6 µM | 10.9 µM | 14.8 µM | 18.5 µM | 7.66 µM | 14.9 µM | 20.3 µM | 12.7 µM | 6.02 µM | 6.42 µM
4 | CCOC(=O)c1ccc(-c2cccs2)n1C | > 100 µM | > 100 µM | > 100 µM | > 100 µM | > 100 µM | > 100 µM | > 100 µM | > 100 µM | > 100 µM | > 100 µM | > 100 µM | > 100 µM | > 100 µM | > 100 µM | > 100 µM | > 100 µM | > 100 µM | > 100 µM | > 100 µM | > 100 µM
5 | Cc1cc(C)nc(NC(=S)Nc2cccc(Cl)c2)c1 | > 100 µM | > 86.5 µM | > 100 µM | > 100 µM | > 100 µM | > 100 µM | > 100 µM | > 100 µM | > 100 µM | > 100 µM | > 100 µM | > 100 µM | > 100 µM | > 100 µM | > 100 µM | > 100 µM | > 100 µM | > 100 µM | > 100 µM | > 100 µM
6 | COC(OC)C1(c2ccccc2)Oc2ccccc2C1=O (stereo not drawn) | > 100 µM | > 100 µM | > 100 µM | > 100 µM | > 100 µM | > 100 µM | > 100 µM | > 100 µM | > 100 µM | > 100 µM | > 100 µM | > 100 µM | > 100 µM | > 100 µM | > 100 µM | > 100 µM | > 100 µM | > 100 µM | > 100 µM | > 100 µM
7 | Nc1ccc(S(=O)(=O)Nc2nc3ccccc3nc2Nc2ccc(S(N)(=O)=O)cc2)cc1 | > 100 µM | > 100 µM | > 100 µM | > 100 µM | > 100 µM | > 100 µM | > 100 µM | 93.3 µM | > 100 µM | > 100 µM | > 100 µM | 69.6 µM | > 100 µM | > 100 µM | > 100 µM | > 100 µM | 97.4 µM | 62.1 µM | > 100 µM | > 100 µM
8 | Nc1sccc1S(=O)(=O)c1ccsc1N | > 100 µM | > 100 µM | > 100 µM | > 100 µM | > 100 µM | > 100 µM | > 100 µM | > 100 µM | > 100 µM | > 100 µM | > 100 µM | > 100 µM | > 100 µM | > 100 µM | – | > 100 µM | > 100 µM | > 100 µM | > 100 µM | > 100 µM
9 | O=C(O)c1cnccc1-c1cc(=O)[nH]n1-c1ccccc1 | > 100 µM | > 100 µM | > 78.2 µM | > 100 µM | > 100 µM | > 100 µM | 34.3 µM | > 77.6 µM | > 100 µM | > 100 µM | > 100 µM | > 100 µM | > 100 µM | > 100 µM | > 100 µM | > 100 µM | > 100 µM | > 100 µM | > 100 µM | > 100 µM
10 | COc1cccc(N=N/C(=N/NC(=O)c2cc(Cl)ccc2O)c2ccc(N(CCC#N)CCC#N)cc2C)c1 | > 100 µM | > 100 µM | – | > 100 µM | > 100 µM | > 100 µM | 41.2 µM | 89.6 µM | > 100 µM | > 100 µM | > 100 µM | > 100 µM | > 100 µM | > 100 µM | > 100 µM | > 100 µM | 48.7 µM | > 100 µM | > 100 µM | > 100 µM
